This note sets out measurements from patent US7897620B2, “Methods of using anti-inflammatory compounds” (Cambridge Enterprise Limited, priority 2007, dated 2011).

For orientation: clearance means the rate of elimination divided by the concentration. Read a low clearance as inefficient removal. Usually half-life stands for how long it takes for the measured level to halve. The term AUC denotes the area under the concentration-time curve, a measure of exposure. Higher therefore signals more exposure. Usually Tmax stands for the time at which the peak concentration occurs. What is called bioavailability is dose-corrected exposure relative to a reference, in per cent.

The test system of series [1] is RANTES induced THP-1 cell migration. The experiment in a line: ChemoTx transwell migration assay, RANTES induced migration of THP-1 cells. As to conditions: Homo sapiens, maximal dose of chemoattractant, read-out: ED50 RANTES. It counts as cell-based. The method, then:
(§1) In principle, this assay consists of two chambers separated by a porous membrane. The chemoattractant is placed in the lower compartment and the cells are placed in the upper compartment. After incubation for a period at 37° C. the cells move towards the chemoattractant, and the number of cells in the lower compartment is proportional to the chemoattractant activity (relative to a series of controls).
(§2) The THP-1 cell line (European Cell Culture Collection) were used as the leukocyte cell population.
(§3) First, the cell suspension to be placed in the upper compartment is prepared. The THP-1 cells are pelleted by centrifugation (770×g; 4 mins) and washed with Geys Balanced Salt Solution with 1 mg/ml BSA (GBSS+BSA). This wash is then repeated, and the cells repelleted before being resuspended in a small volume of GBSS+BSA for counting, for example using a standard haemocytometer.
(§4) The volume of GBSS+BSA is then adjusted depending on the number of cells present so that the cells are at final density of 4.45×10^6 cells per ml of GBSS+BSA. This ensures that there are […] THP-1 cells in each 25 μl of the solution that will be placed in the upper chamber of the plate.
(§5) To test a single compound for its ability to inhibit chemokine induced migration, it is necessary to prepare two lots of cells. The suspension of THP-1 cells at 4.45×10^6 cells/ml is divided into two pots. […]

In series [2] the test system is MCP-1 induced THP-1 cell migration. Put plainly: ChemoTx transwell migration assay, MCP-1 induced migration of THP-1 cells. Format: cell-based. As to conditions: Homo sapiens. On the procedure: as §1, §2, §3, §4
To test a single compound for its ability to inhibit chemokine induced migration, it is necessary to prepare two lots of cells. The suspension of THP-1 cells at 4.45×10^6 cells/ml is divided into two pots. To one pot the inhibitor under test is added at an appropriate final concentration, in an appropriate vehicle (for example at 1 μM in not more than 1% DMSO). To the second pot an equal volume of GBSS+BSA plus vehicle as appropriate (e.g. not more than 1% DMSO) is added to act as a control.
Next, the chemoattractant solution to be placed in the lower compartment is prepared. For example, MCP-1 is diluted in GBSS+BSA to give a final concentration of 25 ng/ml. This is divided into two pots, as for the cell suspension. To one pot, the test compound is added to the same final concentration as was added to the cell suspension, while to the other pot an equal volume of GBSS+BSA plus vehicle as appropriate (e,g. not more than 1% DMSO) is added. Alternatively, other chemokines may be used (SDF-1α at 7.5 ng/ml; RANTES at 50 ng/ml; IL-8 at 10 ng/ml using neutrophils as the target cell population). In each case it is important to determine (in a separate experiment) the concentration of each chemokine which causes maximal stimulation of migration of the chosen target leukocyte population. This maximal concentration must then be used in experiments to test the inhibitory activity of the compounds of the invention.
Once the chemoattractant solutions for the lower wells and cell solutions for the upper chambers have been prepared, the migration chamber should be assembled. Place 29 μl of the appropriate chemoattractant solution into the lower well of the chamber. Assays should be performed with at least triplicate determinations of each condition. Once all the lower chambers have been filled, apply the porous membrane to the chamber in accordance with the manufacturer's instructions. Finally, apply 25 μl of the appropriate cell solution to each upper chamber. A plastic lid is placed over the entire apparatus to prevent evaporation.
The assembled chamber is incubated at 37° C., 5% CO2, for 2 hours. A suspension of cells in GBSS+BSA is also incubated under identical conditions in a tube: these cells will be used to construct a standard curve for determining the number of cells that have migrated to the lower chamber under each condition.
At the end of the incubation, the liquid cell suspension is gently removed from the upper chamber, and 20 μl of ice-cold 20 mM EDTA in PBS is added to the upper chamber, and the apparatus is incubated at 4° C. for 15 mins. This procedure causes any cells adhering to the underside of the membrane to fall into the lower chamber.
After this incubation the filter is carefully flushed with GBSS+BSA to wash off the EDTA, and then the filter is removed. […]

Series [3] deals with SDF-1α induced THP-1 cell migration. The experiment in a line: ChemoTx transwell migration assay, SDF-1α induced migration of THP-1 cells. Format: cell-based. As to conditions: Homo sapiens, maximal dose of chemoattractant, read-out: ED50 SDF-1α. On the procedure:
as §1, §2, §3, §4, §5

A short description of series [4]: Distribution of compounds into tissues and unchanged parent in urine 24 hrs after a single oral dose. Format: in vivo. As to conditions: rat; for concentration at 24 h: 24 hrs after single oral dose 3 mg/kg in 1% CMC, nd = not detected, LLOQ 2.4 ng/g. On the procedure: Urine was collected from rats exposed to a single oral dose (3 mg/kg in 1% CMC) of each compound over a 24 hour period in metabolic cages. The pooled urine sample was then subjected to full scan mass spectral analysis, using the same LC-MS conditions as described in example 1 above. Further MS-MS analysis of the product ions was then performed, and likely fragmentations/re-arrangements assigned from the publicly available Metabolite ID database.
To provide a quantitative estimate of the degree of metabolism suffered by each of the compounds tested, the amount of unchanged parent compound in urine was measured using the same validated LC-MS assay described in example 1, using (S)-3-(2′,2′-dimethylpropanoylamino)-caprolactam as an internal standard. In addition, the level of compounds in various target tissues was also determined.

Series [5] is described as follows: Pharmacokinetics following a single dose in dog (crossover iv / per os). It counts as in vivo. As to conditions: plasma; for Vd: read-out: Vss. The method, then: In a separate experiment, (I′) was compared with the second best compound (V) for pharmacokinetic parameters in a different (non-rodent) species, the dog. Single doses (1 mg/kg in 5% DMSO intravenously or 3 mg/kg in 1% CMC per os) were administered to a single dog for each compound in a simple crossover design with 1 week washout between the two routes of administration.

Where [6] appears, read: THP-1 cells, maximal dose of chemoattractant, read-out: ED50 MCP-1.
Where [7] appears, read: THP-1 migration inhibition, Table 5, read-out: Functional ED50 versus MCP-1.

Where two headings read alike, the source gives them in different places.

In the case of `O=C1NCCCC[C@@H]1NC(=O)C12CC3CC(CC(C3)C1)C2` [(II), 3-(adamantane-1-carbonylamino)-caprolactam], the EC50 was 0.1 nM in series [1], 0.08 nM in series [2] (setting [6]), 0.08 nM in series [2] (setting [7]) and 0.1 nM in series [3].
`CC(C)(C)S(=O)(=O)N[C@H]1CCCCNC1=O` [(IV), 3-(1′,1′-dimethylethylsulfonylamino)-caprolactam]: the EC50 in series [2] (setting [6]) and in series [2] (setting [7]) was 0.8 nM each time. The “fraction of the injected dose recovered unchanged in urine” value in series [4] (24 hrs, single oral dose 3 mg/kg) is reported as “less than 10%”.
As for `O=C1NCCCC[C@@H]1NC(=O)C12CC3CC(CC(O)(C3)C1)C2` [(V), 3-(3′-hydroxyadamantyl-1-carbonylamino)-caprolactam], in series [5] (Intravenous PK (1 mg/kg)), the clearance is 7.4 mL/min/kg, the half-life was 1.1 h and the Vd is 0.6 L/kg. In series [5] (Oral PK (3 mg/kg)), the area under the curve (AUC) was 4000 ng·h/mL, the time to peak (Tmax) is 1 h, the bioavailability is 59% and the half-life worked out at 1.12 h. In addition, in series [3], the EC50 turned out to be 0.2 nM.
Take `CC(C)(C)C(=O)N[C@H]1CCCNC1=O` [Compound (I′), 3-(2′,2′-dimethylpropanoylamino)-tetrahydropyridin-2-one]: in series [5] (Intravenous PK (1 mg/kg)), the clearance is 1.9 mL/min/kg. In addition, the half-life in series [5] (Intravenous PK (1 mg/kg)) worked out at 3.93 h; in series [5] (Oral PK (3 mg/kg)), 3.62 h. Besides, the Vd in series [5] (Intravenous PK (1 mg/kg)) was found to be 0.6 L/kg. Besides, the exposure (AUC) in series [5] (Oral PK (3 mg/kg)) is 20200 ng·h/mL. Also, the Tmax in series [5] (Oral PK (3 mg/kg)) was 1 h. In addition, the bioavailability in series [5] (Oral PK (3 mg/kg)) was determined as 75%. Moreover, the concentration at 24 h in series [4] (brain, read-out: Level of compound in Brain) was found to be 1.6 ng/g; in series [4] (heart, read-out: Level of compound in Heart), 5.3 ng/g; in series [4] (kidney, read-out: Level of compound in Kidney), 5.1 ng/g; in series [4] (liver, read-out: Level of compound in Liver), 3.6 ng/g; in series [4] (lung, read-out: Level of compound in Lung), 21.9 ng/g; in series [4] (muscle, read-out: Level of compound in Muscle), 3.1 ng/g.
